Test results as given in publication PMC8074287, “Analgesic and Anticancer Activity of Benzoxazole Clubbed 2-Pyrrolidinones as Novel Inhibitors of Monoacylglycerol Lipase” (Molecules, 2021).
Like-named read-outs stand apart in the source and are kept apart here.

Legend:
[1] = molecular target: T1, hFAAH (Homo sapiens, UniProt O00519); test: Human FAAH inhibition assay (Cayman's assay kit); conditions: IC50, mean ± SEM (n = 3)
T1 sequence (O00519 1-579): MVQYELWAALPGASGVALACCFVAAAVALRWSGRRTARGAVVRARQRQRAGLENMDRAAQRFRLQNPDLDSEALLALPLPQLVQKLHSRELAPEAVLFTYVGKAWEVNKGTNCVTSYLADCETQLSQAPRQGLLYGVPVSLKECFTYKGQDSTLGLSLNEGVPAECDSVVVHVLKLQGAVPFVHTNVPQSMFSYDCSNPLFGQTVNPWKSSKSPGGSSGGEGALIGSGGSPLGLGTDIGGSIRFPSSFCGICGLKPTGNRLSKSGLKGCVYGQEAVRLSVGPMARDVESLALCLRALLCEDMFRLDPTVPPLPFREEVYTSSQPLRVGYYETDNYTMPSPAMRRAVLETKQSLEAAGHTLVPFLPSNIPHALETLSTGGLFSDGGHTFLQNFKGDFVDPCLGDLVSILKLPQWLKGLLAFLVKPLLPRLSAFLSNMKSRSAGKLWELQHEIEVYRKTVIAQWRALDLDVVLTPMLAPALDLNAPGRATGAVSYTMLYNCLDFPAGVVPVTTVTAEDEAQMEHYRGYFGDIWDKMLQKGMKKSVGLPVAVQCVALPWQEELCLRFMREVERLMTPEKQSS

[2] = molecular target: T2, hMAGL (Homo sapiens, UniProt Q99685); test: Human MAGL inhibition assay (Cayman's assay kit)
T2 sequence (Q99685 1-303): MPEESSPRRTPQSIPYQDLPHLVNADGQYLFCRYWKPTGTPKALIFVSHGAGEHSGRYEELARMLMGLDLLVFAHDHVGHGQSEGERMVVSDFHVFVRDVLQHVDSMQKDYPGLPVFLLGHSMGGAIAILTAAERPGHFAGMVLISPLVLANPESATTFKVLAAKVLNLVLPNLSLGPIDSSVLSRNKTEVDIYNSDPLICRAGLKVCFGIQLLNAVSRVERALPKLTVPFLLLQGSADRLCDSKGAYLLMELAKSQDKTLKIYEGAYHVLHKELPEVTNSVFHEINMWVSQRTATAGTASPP

[3] = tested on: MAGL; conditions: cited from earlier work
[4] = tested on: FAAH; design: method as in PMID 15456244; conditions: read-out: FAAH IC50, value reported; cited from earlier work
[5] = tested on: formalin-induced nociception; test: Formalin-induced analgesic (nociception) test; assay type: in vivo, Male Wistar rats; conditions: 100 mg/kg i.p., 30 min before formalin
Excerpt: The formalin-induced analgesic test is an extensively acknowledged animal nociception model. In order to evaluate both central and peripheral effects of the compound (20), formalin-induced nociception model was selected for analgesic activity. The formalin induced behavioral response comprises two typical phases, stage I and II. Stage I persists up to five minutes after formalin injection and is characterized by acute pain with vigorous licking and biting of the injected site. Stage I consists the action formalin on afferent C-fiber nociceptors. While Stage II starts 10–30 min after formalin injection and persists till 60 min, characterized by periodic licking and biting of the injected site. Stage II imitates the action of central sensitization of the spinal dorsal horn neurons.
Figure 5 Formalin-induced analgesic test; a dose of the test compound 20 (5, 10, 30, and 50 mg/kg, p.o, suspended in 0.5% CMC) was administered 4 h before formalin injection (50 µL, 2.5%). Reference drug, gabapentin (100 mg/kg, i.p, dissolved in 0.9% normal saline) was injected 30 min before formalin injection. Total paw licking and biting duration, Stage I (white bar, 0–5 min) and stage II (black bar, 10–30 min) was recorded as a measure of pain behavior. Data is represented as mean ± SEM from a group of 10 animals. * p < 0.05, ** p < 0.01, p > 0.05 (NS, nonsignificant) vs. control (vehicle). GBP: Gabapentin; D5, D10, D30, andD50 are the dose concentrations of test compound 20.
Male Wistar rats (180–200 g) were obtained with the permission of IAEC (proposal number 1048) from Jamia Hamdard, New Delhi, India. The results of test compound 20 and reference drug, Gabapentin (GBP), were statistically compared with the control group.

[6] = earlier work of the authors' group

Row | SMILES | melting point [°C] | IC50 [2] [µM] | IC50 [3] [nM] | further results
1 | O=C1CC(c2nc3ccccc3o2)CN1c1ccc(F)c(Cl)c1 (centres unmarked) [Compound 16, 4-(Benzo[d]oxazol-2-yl)-1-(3-chloro-4-fluorophenyl)pyrrolidin-2-one] | 187 to 189 | 0.034 ± 0.0017 |  | IC50 [1]: 25 ± 2.3 µM
2 | Cc1ccccc1N1CC(c2nc3ccccc3o2)CC1=O (centres unmarked) [Compound 13, 4-(Benzo[d]oxazol-2-yl)-1-(o-tolyl)pyrrolidin-2-one] | 162 to 164 | 85 ± 1.5 |  | 
3 | O=C(Cn1nnc2ccccc21)Nc1ccc(-c2nc3ccccc3s2)cc1 [ZINC24092691] |  |  |  | IC50 [3, 6]: 10 nM
4 | O=C1CC(c2nc3ccccc3o2)CN1Cc1ccccc1 (centres unmarked) [Compound 11, 4-(Benzo[d]oxazol-2-yl)-1-benzylpyrrolidin-2-one] | 160 to 162 | > 100 |  | 
5 | O=C(N1CCN(C(c2ccccc2)c2ccccc2)CC1)n1nnc2ccccc21 [ML30] |  |  | 0.54 | 
6 | Cc1ccc(N2CC(c3nc4ccccc4o3)CC2=O)cc1 (centres unmarked) [Compound 14, 4-(Benzo[d]oxazol-2-yl)-1-(p-tolyl)pyrrolidin-2-one] | 164 to 166 | 72 ± 2.1 |  | 
7 | COc1ccc(N2CC(c3nc4ccccc4o3)CC2=O)cc1 (centres unmarked) [Compound 18, 4-(Benzo[d]oxazol-2-yl)-1-(4-methoxyphenyl)pyrrolidin-2-one] | 177 to 179 | 0.042 ± 0.0015 |  | IC50 [1]: 37 ± 2.2 µM
8 | O=C(O[C@H](CO)C(F)(F)F)N1C[C@@H]2C(c3ccn(-c4ccc(F)cc4)n3)[C@@H]2C1 (some centres unmarked) [PF-06795071] |  |  | 3 | 
9 | O=C(N1CCC(C(c2ccc3c(c2)OCO3)c2ccc3c(c2)OCO3)CC1)n1cncn1 [JJKK-048, {4-[bis-(benzo[d][1,3]dioxol-5-yl)methyl]-piperidin-1-yl}(1H-1,2,4-triazol-1-yl)methanone] |  |  | 0.363 | selectivity for MAGL over FAAH [3]: more than 10,000 fold
10 | O=C1CC(c2nc3ccccc3o2)CN1c1ccc(O)cc1 (centres unmarked) [Compound 17, 4-(Benzo[d]oxazol-2-yl)-1-(4-hydroxyphenyl)pyrrolidin-2-one] | 242 to 245 | 62 ± 2.7 |  | 
11 | Cc1ncccc1-c1cc(F)cc(N2C[C@H](N3CCN(c4ncccn4)CC3)CC2=O)c1 [R(3t)] |  |  | 3.6 | 
12 | NC(=O)c1cccc(-c2cccc(OC(=O)NC3CCCCC3)c2)c1 [URB597] |  |  |  | IC50 [4]: 4.6 nM
13 | O=C(OC(C(F)(F)F)C(F)(F)F)N1CCC(C(O)(c2ccc3c(c2)OCO3)c2ccc3c(c2)OCO3)CC1 [KML29] |  |  | 3.6 | selectivity for MAGL over FAAH [3]: more than 10,000 fold
14 | O=C1CC(c2nc3ccccc3o2)CN1c1ccc(Cl)cc1 (centres unmarked) [Compound 15, 4-(Benzo[d]oxazol-2-yl)-1-(4-chlorophenyl)pyrrolidin-2-one] | 174 to 176 | 0.065 ± 0.0032 |  | IC50 [1]: 28 ± 1.8 µM
15 | NCC1(CC(=O)O)CCCCC1 [GBP, Gabapentin, reference compound] |  |  |  | paw licking and biting, Stage II ([5]; vs control): significant reduction of paw licking and biting; analgesic effect, Stage I (acute nociception) ([5]; vs control (0.5% CMC)): little analgesic effects
16 | O=C(Cn1nnc2ccccc21)Nc1ccc(-c2nc3ccccc3s2)cc1 [ZINC24092691 analogue] |  |  |  | IC50 [3, 6]: 6.5 nM
17 | COc1ccc(N2CC(c3nc4ccccc4[nH]3)CC2=O)cc1 (centres unmarked) [compound 25] |  |  |  | IC50 [3, 6]: 9.4 nM
18 | O=C1CC(c2nc3ccccc3o2)CN1c1ccccc1 (centres unmarked) [Compound 12, 4-(Benzo[d]oxazol-2-yl)-1-phenylpyrrolidin-2-one] | 148 to 150 | > 100 |  | 
20 | O=C(Nc1cccc(-c2ccccc2)c1)OC1CCCCC1 [URB602] |  |  | 28000 | 
21 | CCCCNC(=O)Oc1ccc(C2=NCCS2)cc1 [SPB01403] |  |  | 31000 | 
22 | COc1nn(-c2ccc(NC(=O)OCc3ccccc3)c(C)c2)c(=O)o1 [CAY10499, reference compound] |  |  | 144 | IC50 ([2]; read-out: hMAGL, IC50, mean ± SEM (n = 3)): 0.415 ± 0.0032 µM
23 | O=C(N1CCN(C(c2ccc(F)cc2)c2ccc(F)cc2)CC1)n1cncn1 [SAR629] |  |  | 1.1 | 
